Results: PubChem BioAssay (NCI)
Values joined by “and” are separate entries in the source; they are usually repeats but may differ in a detail not shown here. Equal values may be shown once.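 Method: 48-hour compound exposure of cells in 96-well plates, five concentrations, linear interpolation of endpoints. GI50 marks 50% less growth. TGI: concentration producing complete growth inhibition.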

Key:
Assay in all cases: NCI-60 cell line screen, 48 h
OVCAR-8 ovarian = system: OVCAR-8 ovarian
U251 CNS = system: U251 CNS
HL-60(TB) leukemia = system: HL-60(TB) leukemia
786-0 renal = system: 786-0 renal
SF-268 CNS = system: SF-268 CNS
CAKI-1 renal = system: CAKI-1 renal
LOX IMVI melanoma = system: LOX IMVI melanoma
SF-539 CNS = system: SF-539 CNS
SK-MEL-28 melanoma = system: SK-MEL-28 melanoma
BT-549 breast = system: BT-549 breast

SMILES	GI50 (OVCAR-8 ovarian)	TGI (OVCAR-8 ovarian)	GI50 (U251 CNS)	TGI (U251 CNS)	GI50 (HL-60(TB) leukemia)	TGI (HL-60(TB) leukemia)	GI50 (786-0 renal)	TGI (786-0 renal)	GI50 (SF-268 CNS)	TGI (SF-268 CNS)	GI50 (CAKI-1 renal)	TGI (CAKI-1 renal)	GI50 (LOX IMVI melanoma)	TGI (LOX IMVI melanoma)	GI50 (SF-539 CNS)	TGI (SF-539 CNS)	GI50 (SK-MEL-28 melanoma)	TGI (SK-MEL-28 melanoma)	GI50 (BT-549 breast)	TGI (BT-549 breast)
CC(=O)Oc1ccc(C23c4ccccc4C2(OC(C)=O)c2cc(OC(C)=O)ccc23)cc1 (stereo not given)	4.28 µM	49.5 µM	2.34 µM	5.63 µM	2.41 µM	6.72 µM	6.56 µM	20.5 µM	5.54 µM	22 µM	4.08 µM	17.2 µM	3.48 µM	12.8 µM	6.48 µM	28.6 µM	31.6 µM	> 100 µM	2.76 µM	6.49 µM
COC(=O)c1cc2c3ccccc3n3c(=O)c4cc5ccc(N(S(=O)(=O)c6ccc(C)cc6)S(=O)(=O)c6ccc(C)cc6)cc5nc4c(n1)c23	> 100 µM	> 100 µM	10.1 µM	45.2 µM	> 100 µM	> 100 µM	13.6 µM	43.9 µM	39.2 µM	> 100 µM	> 100 µM	> 100 µM	48.5 µM	> 100 µM	25.4 µM	> 100 µM	> 100 µM	> 100 µM	35.7 µM	> 100 µM
COc1cccc(/C(C#N)=C/c2nc3c(N4CCOCC4)nc(Cl)nc3n2C)c1	1.01 µM	3.07 µM	1.26 µM	2.66 µM	1.46 µM	3.96 µM	1.59 µM	3.05 µM	1.57 µM	3.17 µM	0.621 µM	1.99 µM	1.01 µM	2.25 µM	1.44 µM	2.79 µM	1.61 µM	3.1 µM	0.631 µM	2.04 µM
CCC(O)c1ccc(Br)cc1NC(=O)c1cccc(Cl)c1 (stereo not given)	23.7 µM	77.9 µM	14.1 µM	31.8 µM	22.3 µM	60.1 µM	33.1 µM	> 100 µM	26.2 µM	93.2 µM	10.2 µM	51.4 µM	9.03 µM	25 µM	31.8 µM	> 100 µM	23.9 µM	64.8 µM	23.7 µM	74.3 µM
O=C1c2ccccc2-[n+]2ccc3c([nH]c4ccccc43)c21		> 100 µM		1.47 µM		1.38 µM		2.58 µM		1.3 µM		2.07 µM		0.81 µM		1.45 µM		1.16 µM		4.92 µM
CC(C)c1c(-c2ccccc2)nc2c(C#N)c[nH]n2c1=O	32.2 µM	> 100 µM	33.8 µM	> 100 µM	22.3 µM	60.4 µM	35.1 µM	> 100 µM	28.8 µM	> 100 µM	31.2 µM	> 100 µM	29 µM	> 91.2 µM	29.4 µM	> 100 µM	33.5 µM	> 100 µM	26.2 µM	> 95.5 µM
COc1ccc2c(=O)cc(-c3ccccc3)[nH]c2c1	2.64 µM	> 46.6 µM	0.707 µM	> 100 µM	0.256 µM	1.19 µM	4.56 µM	> 100 µM	1.28 µM	> 100 µM	0.323 µM	> 100 µM	4.17 µM	> 100 µM	0.584 µM	3.37 µM	7.84 µM	> 100 µM	0.56 µM	> 27.7 µM
CS(=O)(=O)CCNCc1cc(-c2cc3c(Nc4ccc(OCc5cccc(F)c5)c(Cl)c4)ncnc3s2)cs1	16.5 µM	> 25 µM	9.34 µM	> 25 µM	4.18 µM	> 25 µM	6.44 µM	> 18.7 µM	11.3 µM	> 25 µM	4.79 µM	> 25 µM	5.56 µM	16.3 µM	9.92 µM	> 25 µM	12.5 µM	> 25 µM	17.2 µM	> 25 µM
CC(C)c1cnn2c(NCc3ccccc3)cc(NC[C@H]3CCNC[C@@H]3O)nc12	0.555 µM and 0.745 µM	11.6 µM and 8.68 µM	0.378 µM and 0.382 µM	10.7 µM and 10.4 µM	0.132 µM and 0.297 µM	0.584 µM and 1.71 µM	0.547 µM and 0.779 µM	12.3 µM and 12.2 µM	0.402 µM and 0.648 µM	4.63 µM and 2.72 µM	0.472 µM and 1.65 µM	9.13 µM and 11.4 µM	0.0945 µM and 0.0967 µM	1.49 µM and 0.542 µM	0.292 µM and 0.436 µM	1.68 µM and 1.43 µM	0.388 µM and 0.343 µM	2.43 µM and 2.41 µM	1.81 µM and 1.27 µM	4.4 µM and 3.08 µM
O=C1/C(=C/c2cccc(Br)c2)COc2ccc(O)cc21	3.4 µM	12.9 µM	1.49 µM	3 µM	1.88 µM	5.75 µM	2.08 µM	5.43 µM	3.33 µM	18.2 µM	1.83 µM	5.12 µM	1.7 µM	3.41 µM	1.89 µM	4.58 µM	2.14 µM	5.21 µM	3.01 µM	12.7 µM
CCNc1cc(-c2cccc(OC(F)(F)F)c2)nc2ccc(N3CCCC3)cc12	2.51 µM	8.24 µM	1.68 µM	3.62 µM	1.97 µM	4.27 µM	1.56 µM	3.48 µM	1.79 µM	3.79 µM	1.81 µM	4.9 µM	1.69 µM	3.26 µM	1.73 µM	3.36 µM	1.71 µM	3.74 µM	2.03 µM	4.07 µM
CC(C)CCC[C@@H](C)[C@H]1CC[C@H]2[C@@H]3CC[C@H]4C[C@@H](CCC=C(c5cc(Cl)c(O)c(C(=O)O)c5)c5cc(Cl)c(O)c(C(=O)O)c5)CC[C@]4(C)[C@H]3CC[C@]12C		> 100 µM		> 100 µM		> 100 µM		> 100 µM		> 100 µM		> 100 µM		> 100 µM		> 100 µM		> 100 µM		> 100 µM
Cc1nc(-c2ccccc2)n2nc(NCCCN3CCOCC3)ncc12	> 25 µM	> 25 µM	> 25 µM	> 25 µM	> 25 µM	> 25 µM	> 25 µM	> 25 µM	> 25 µM	> 25 µM	6.86 µM	> 25 µM	15.1 µM	> 25 µM	> 25 µM	> 25 µM	> 25 µM	> 25 µM	> 25 µM	> 25 µM
CCCCCCCCOC(=O)CC[C@@H](C)[C@H]1CC[C@H]2[C@@H]3[C@H](OC(=O)CCN)C[C@@H]4C[C@H](OC(=O)CCN)CC[C@]4(C)[C@H]3C[C@H](OC(=O)CCN)[C@]12C	2.14 µM	4.62 µM	1.95 µM	3.61 µM	3.32 µM	11.3 µM	15 µM	37.1 µM	3.34 µM	9.12 µM	18 µM	34.6 µM	2.23 µM	4.51 µM	3.01 µM	8.77 µM	3.52 µM	15.1 µM	20.4 µM	46.9 µM
O=C(Nc1cc(C(F)(F)F)ccc1Cl)c1ccc(NC2=C(Cl)C(=O)N(Cc3ccccc3)C2=O)cc1	14.6 µM	41.3 µM	22.6 µM	> 100 µM	3.08 µM	9.33 µM	23.4 µM	> 100 µM	32.7 µM	> 100 µM	42.6 µM	> 100 µM	4.11 µM	> 100 µM	28.9 µM	77.5 µM	23.9 µM	63.5 µM	15 µM	39.7 µM
NCCSSCCN		> 100 µM		> 100 µM		> 100 µM		> 100 µM		> 100 µM		> 100 µM		> 100 µM		> 100 µM		> 100 µM		> 100 µM
COc1ccccc1C#Cc1ccccc1C#CCCCCO	22.6 µM	74.9 µM	18.7 µM	37.3 µM	50.8 µM	> 100 µM	13.6 µM	29.7 µM	18 µM	45.2 µM	19.7 µM	42.7 µM	17.9 µM	36 µM	14.4 µM	29.1 µM	16.8 µM	33.4 µM	15.5 µM	33.4 µM
CCCCCCCCCCCCCCCCCC1=NC(C)(C)CN1CC(C)O (stereo not given)	3.99 µM	14.5 µM	4.89 µM	19.9 µM	4.82 µM	24.8 µM	14.9 µM	31.7 µM	1.94 µM	4.06 µM	14.4 µM	29.4 µM	1.81 µM	3.44 µM	4.03 µM	19.1 µM	17.1 µM	33.5 µM	19.7 µM	40.9 µM
